Measured values reported in PubChem BioAssay (NCI).
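In this assay, cells in 96-well plates receive the compound at five concentrations for 48 hours. Endpoints are linearly interpolated between the surrounding concentrations. TGI: concentration producing complete growth inhibition.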

What was measured:
Test in all cases: DTP human tumour cell line panel, 48 h
[1] = tested on: NCI-H522 lung
[2] = tested on: COLO 205 colon
[3] = tested on: OVCAR-4 ovarian
[4] = tested on: NCI-H226 lung
[5] = tested on: CAKI-1 renal
[6] = tested on: SNB-75 CNS
[7] = tested on: RPMI-8226 leukemia
[8] = tested on: OVCAR-3 ovarian
[9] = tested on: NCI-H460 lung
[10] = tested on: M14 melanoma
[11] = tested on: NCI-H23 lung
[12] = tested on: HL-60(TB) leukemia
[13] = tested on: MCF7 breast
[14] = tested on: BT-549 breast
[15] = tested on: UACC-257 melanoma
[16] = tested on: HS 578T breast
[17] = tested on: HT29 colon
[18] = tested on: NCI/ADR-RES ovarian
[19] = tested on: HCT-15 colon
[20] = tested on: EKVX NSCLC
[21] = tested on: CCRF-CEM leukemia
[22] = tested on: A549 NSCLC
[23] = tested on: SN12C renal
[24] = tested on: HOP-62 NSCLC
[25] = tested on: SK-MEL-28 melanoma
[26] = tested on: TK-10 renal
[27] = tested on: OVCAR-8 ovarian
[28] = tested on: RXF 393 renal
[29] = tested on: LOX IMVI melanoma
[30] = tested on: UO-31 renal
[31] = tested on: ACHN renal
[32] = tested on: HCT-116 colon
[33] = tested on: SK-MEL-5 melanoma
[34] = tested on: DU-145 prostate
[35] = tested on: U251 CNS
[36] = tested on: MALME-3M melanoma
[37] = tested on: PC-3 prostate
[38] = tested on: UACC-62 melanoma
[39] = tested on: T-47D breast
[40] = tested on: MDA-MB-231 breast
[41] = tested on: SF-295 CNS
[42] = tested on: SK-OV-3 ovarian
[43] = tested on: IGROV1 ovarian
[44] = tested on: K-562 leukemia
[45] = tested on: KM12 colon
[46] = tested on: SF-268 CNS
[47] = tested on: 786-0 renal
[48] = tested on: MDA-N
[49] = tested on: MOLT-4 leukemia
[50] = tested on: OVCAR-5 ovarian
[51] = tested on: SNB-19 CNS
[52] = tested on: SR leukemia
[53] = tested on: MDA-MB-435
[54] = tested on: A498 renal
[55] = tested on: SK-MEL-2 melanoma
[56] = tested on: SF-539 CNS
[57] = tested on: HCC-2998 colon
[58] = tested on: SW-620 colon
[59] = tested on: HOP-92 NSCLC

With S=C1CC(c2ccccc2)Sc2ccc(Cl)cc2N1 (configuration not stated) the TGI [1] was greater than 100 µM, the TGI [2] was greater than 100 µM and the TGI [3] was greater than 100 µM. It also gave a TGI [4] greater than 100 µM, a TGI [5] greater than 100 µM and a TGI [6] greater than 100 µM. The TGI [7] was greater than 100 µM, the TGI [8] was greater than 100 µM and the TGI [9] was greater than 100 µM. For the same compound, the TGI [10] was greater than 100 µM, the TGI [11] was greater than 100 µM and the TGI [12] was greater than 100 µM. For the same compound, the TGI [13] was greater than 100 µM, the TGI [14] was greater than 100 µM and the TGI [15] was greater than 100 µM. The TGI [16] was 48.3 µM, the TGI [17] was greater than 100 µM and the TGI [18] was greater than 100 µM. It also gave a TGI [19] greater than 100 µM, a TGI [20] greater than 100 µM and a TGI [21] greater than 100 µM. The TGI [22] was greater than 100 µM, the TGI [23] was greater than 100 µM and the TGI [24] was greater than 100 µM. For the same compound, the TGI [25] was greater than 100 µM, the TGI [26] was greater than 100 µM and the TGI [27] was greater than 100 µM. It also gave a TGI [28] of 25.7 µM, a TGI [29] greater than 100 µM and a TGI [30] greater than 100 µM. For the same compound, the TGI [31] was greater than 100 µM, the TGI [32] was greater than 100 µM and the TGI [33] was greater than 100 µM. The TGI [34] was greater than 100 µM, the TGI [35] was greater than 100 µM and the TGI [36] was greater than 100 µM. It also gave a TGI [37] greater than 100 µM, a TGI [38] greater than 100 µM and a TGI [39] greater than 100 µM. It also gave a TGI [40] greater than 100 µM, a TGI [41] of 92.6 µM and a TGI [42] greater than 100 µM. It also gave a TGI [43] greater than 100 µM, a TGI [44] greater than 100 µM and a TGI [45] greater than 100 µM. The TGI [46] was greater than 100 µM, the TGI [47] was 59.5 µM and the TGI [48] was greater than 100 µM. For the same compound, the TGI [49] was greater than 100 µM, the TGI [50] was greater than 100 µM and the TGI [51] was greater than 100 µM. The TGI [52] was greater than 100 µM and the TGI [53] was greater than 100 µM.
For COc1cc([C@@H]2c3cc4c(cc3[C@@H](c3c(O)cc(O)c5c3O[C@H](c3ccc(O)c(O)c3)[C@@H](O)C5)[C@H]3COC(=O)[C@H]23)OCO4)cc(OC)c1O, the TGI [1] was greater than 100 µM, the TGI [2] was greater than 100 µM and the TGI [3] was greater than 100 µM. For the same compound, the TGI [54] was greater than 100 µM, the TGI [55] was greater than 100 µM and the TGI [5] was greater than 100 µM. It also gave a TGI [7] greater than 100 µM, a TGI [8] greater than 100 µM and a TGI [9] greater than 100 µM. The TGI [10] was greater than 100 µM, the TGI [11] was greater than 100 µM and the TGI [56] was greater than 100 µM. For the same compound, the TGI [12] was greater than 100 µM, the TGI [13] was greater than 100 µM and the TGI [14] was greater than 100 µM. It also gave a TGI [15] greater than 100 µM, a TGI [16] greater than 100 µM and a TGI [17] greater than 100 µM. For the same compound, the TGI [18] was greater than 100 µM, the TGI [19] was greater than 100 µM and the TGI [20] was greater than 100 µM. It also gave a TGI [21] greater than 100 µM, a TGI [22] greater than 100 µM and a TGI [23] greater than 100 µM. The TGI [24] was greater than 100 µM, the TGI [25] was greater than 100 µM and the TGI [57] was greater than 100 µM. The TGI [26] was greater than 100 µM, the TGI [27] was greater than 100 µM and the TGI [28] was greater than 100 µM. It also gave a TGI [29] greater than 100 µM, a TGI [31] greater than 100 µM and a TGI [32] greater than 100 µM. It also gave a TGI [33] greater than 100 µM, a TGI [34] greater than 100 µM and a TGI [35] greater than 100 µM. For the same compound, the TGI [36] was greater than 100 µM, the TGI [37] was greater than 100 µM and the TGI [38] was greater than 100 µM. The TGI [39] was greater than 100 µM, the TGI [40] was greater than 100 µM and the TGI [41] was greater than 100 µM. The TGI [42] was greater than 100 µM, the TGI [43] was greater than 100 µM and the TGI [44] was greater than 100 µM. It also gave a TGI [45] greater than 100 µM, a TGI [46] greater than 100 µM and a TGI [58] greater than 100 µM. It also gave a TGI [47] greater than 100 µM, a TGI [48] greater than 100 µM and a TGI [49] greater than 100 µM. The TGI [50] was greater than 100 µM, the TGI [51] was greater than 100 µM and the TGI [53] was greater than 100 µM. The TGI [59] was greater than 100 µM.
With Nc1nc(Nc2ccccc2)sc1C(=O)c1c[nH]c2ccccc12 the TGI [2] was 17.1 µM, the TGI [3] was 23.5 µM and the TGI [54] was 30.6 µM. For the same compound, the TGI [4] was 29.7 µM, the TGI [55] was 29.8 µM and the TGI [7] was greater than 100 µM. For the same compound, the TGI [8] was 26.6 µM, the TGI [9] was 13.6 µM and the TGI [10] was 20.6 µM. For the same compound, the TGI [11] was 49.2 µM, the TGI [56] was 27.4 µM and the TGI [12] was 46.2 µM. For the same compound, the TGI [13] was 26.9 µM, the TGI [14] was 29.8 µM and the TGI [15] was 22.6 µM. For the same compound, the TGI [16] was 42.5 µM, the TGI [17] was 14.6 µM and the TGI [18] was 44.7 µM. It also gave a TGI [19] of 14.7 µM, a TGI [20] of 27.4 µM and a TGI [21] of 14.5 µM. The TGI [22] was 23.7 µM, the TGI [23] was 34.4 µM and the TGI [24] was 30.9 µM. It also gave a TGI [25] of 26.3 µM, a TGI [26] of 11 µM and a TGI [28] of 23.1 µM. The TGI [29] was 64.8 µM, the TGI [30] was 13.1 µM and the TGI [31] was 62.2 µM. The TGI [32] was 19.5 µM, the TGI [33] was 25.1 µM and the TGI [34] was 22.5 µM. For the same compound, the TGI [35] was 23.6 µM, the TGI [36] was 34.5 µM and the TGI [37] was 25.3 µM. The TGI [38] was 28.9 µM, the TGI [39] was 33.3 µM and the TGI [40] was 32.3 µM. For the same compound, the TGI [42] was 32.8 µM, the TGI [43] was 31.2 µM and the TGI [44] was 56.7 µM. It also gave a TGI [45] of 24.4 µM, a TGI [46] of 33.8 µM and a TGI [58] of 31.2 µM. The TGI [47] was 18.2 µM, the TGI [48] was 25.3 µM and the TGI [49] was 25.8 µM. For the same compound, the TGI [50] was 24.9 µM, the TGI [51] was 20.3 µM and the TGI [52] was 5.12 µM. It also gave a TGI [53] of 23.2 µM and a TGI [59] of 33.2 µM.
OC1(c2ccc(Cl)cc2)c2ccc(CN3CCCC3)cc2C2=NCCN21 (configuration not stated) was tested, and the TGI [2] was 22.7 µM, the TGI [3] was 25.1 µM and the TGI [54] was 25.8 µM. For the same compound, the TGI [55] was 34.2 µM, the TGI [5] was 31.7 µM and the TGI [6] was 18.5 µM. It also gave a TGI [7] of 26 µM, a TGI [8] of 31.7 µM and a TGI [9] of 29.1 µM. For the same compound, the TGI [10] was 12.8 µM, the TGI [11] was 31.2 µM and the TGI [56] was 25.9 µM. The TGI [12] was 29.1 µM, the TGI [13] was 33.4 µM and the TGI [14] was 21.3 µM. The TGI [15] was 25.1 µM, the TGI [16] was 26 µM and the TGI [17] was 26.7 µM. For the same compound, the TGI [18] was greater than 100 µM, the TGI [19] was 32.9 µM and the TGI [20] was 32.7 µM. The TGI [21] was 30.7 µM, the TGI [22] was 33.3 µM and the TGI [23] was 31.7 µM. It also gave a TGI [24] of 29.2 µM, a TGI [25] of 22.7 µM and a TGI [26] of 17.4 µM. For the same compound, the TGI [27] was 29.9 µM, the TGI [28] was 21.2 µM and the TGI [29] was 29.1 µM. For the same compound, the TGI [30] was 27.5 µM, the TGI [31] was 30.3 µM and the TGI [32] was 27.1 µM. The TGI [33] was 22.3 µM, the TGI [34] was 32.2 µM and the TGI [35] was 27.2 µM. For the same compound, the TGI [36] was 25.2 µM, the TGI [37] was 27.2 µM and the TGI [38] was 28.1 µM. The TGI [39] was 38.5 µM, the TGI [40] was 27.3 µM and the TGI [41] was 29.5 µM. The TGI [42] was 27.3 µM, the TGI [43] was 28.7 µM and the TGI [44] was 45.2 µM. For the same compound, the TGI [45] was 27.6 µM, the TGI [46] was 29.7 µM and the TGI [58] was 26.5 µM. The TGI [47] was 28.6 µM, the TGI [48] was 22.8 µM and the TGI [49] was 41.9 µM. It also gave a TGI [50] of 31.9 µM, a TGI [51] of 31.1 µM and a TGI [52] of 33.1 µM. It also gave a TGI [53] of 23.5 µM and a TGI [59] of 16.1 µM.
